Results published in the RepoRT retention time repository (doi:10.1021/acs.analchem.2c02893).

Experiment: RP, Thermo Scientific Acclaim RSLC 120 C18, 100 × 2.1 mm, 2.2 µm, 30 °C, 0.2 mL/min, estimated dead time 1.1 min; A: 90% water + 10% methanol + 0.01% formic acid + 5 mM ammonium formate, pH 3.61; B: methanol + 0.01% formic acid + 5 mM ammonium formate, pH 3.61; gradient (min/%B) 0/1 1/1 2/39 13/99.9 15/99.9 15.1/1 20.1/1
Conditions: stereoisomer not certain

Compound	LC retention time [min]
CC(C)OC(=O)C(O)(c1ccc(Cl)cc1)c1ccc(Cl)cc1 [Chloropropylate]	12.2
CCOC(=O)C(CCc1ccccc1)NC(C)C(=O)N1Cc2ccccc2CC1C(=O)O (configuration not stated) [Quinapril]	9.03
CC(=O)Nc1ccc(N)cc1 [4`-Aminoacetanilide]	2.27
CC(C)(c1ccc(OCC(O)CCl)cc1)c1ccc(OCC(O)CCl)cc1 (configuration not stated) [Bisphenol<U+00A0>A bis(3-chloro-2-hydroxypropyl) ether]	11.4
Cc1ccc(NS(=O)(=O)N(C)C)cc1 [DMST (N.N-Dimethyl-N'-p-tolylsulphamide)]	7.25
CC(C)C(NC(=O)c1nn(CC2CCCCC2)c2ccccc12)C(N)=O (configuration not stated) [AB-CHMINACA]	11.3
O=C(O)Cc1cccc2ccccc12 [Naphthylacetic acid (1-)]	7.76
CC1(C)C(C=C(Cl)Cl)C1C(=O)OCc1cccc(Oc2ccccc2)c1 (configuration not stated) [Permethrin]	13.9
NC(N)=NN=Cc1c(Cl)cccc1Cl [Guanabenz]	5.61
CCCC1CC(C(=O)NC(C(C)Cl)C2OC(SC)C(O)C(O)C2O)N(C)C1 (configuration not stated) [Clindamycin]	6.92
CCC1CN2CCC3(O)C(=Nc4cccc(OC)c43)C2CC1C(=COC)C(=O)OC (configuration not stated) [Mitragynine-7-Hydroxy]	5.95
CN1CCCCC1Cn1cc(C(=O)c2cccc3ccccc23)c2ccccc21 (configuration not stated) [AM-1220]	8.09
CCCc1nn(C)c2c(=O)[nH]c(-c3cc(C(=O)CN4CCN(CC)C(=O)C4=O)ccc3OCC)nc12 [Dioxohongdenafil]	8.18
CC(C)(C)C(O)C(Oc1ccc(-c2ccccc2)cc1)n1cncn1 (configuration not stated) [Bitertanol]	11.3
CC1(C)OC2CC3C4CCC5=CC(=O)C=CC5(C)C4(F)C(O)CC3(C)C2(C(=O)CO)O1 (configuration not stated) [Triamcinolone acetonide]	8.69
CN1CCC23c4c5ccc(O)c4OC2C(=O)CCC3C1C5 (configuration not stated) [Hydromorphone]	2.91
CC(C(=O)O)c1cccc(C(=O)c2ccccc2)c1 (configuration not stated) [Ketoprofen]	8.53
CN1CCCCC1Cn1cc(C(=O)C2C(C)(C)C2(C)C)c2ccccc21 (configuration not stated) [AB-005]	8.81
CCN(CC)CCNC(=O)c1cc(S(C)(=O)=O)ccc1OC [Tiapride]	3.41
CCNC(C)Cc1ccc2c(c1)OCO2 (configuration not stated) [MDEA]	4.39
Cc1nnc2n1-c1ccc(Cl)cc1C(c1ccccc1)=NC2O (configuration not stated) [Alprazolam-Hydroxy]	7.81

Compound	LC retention time [min]
Clc1ccccc1-c1nnc(-c2ccccc2Cl)nn1 [Clofentezine]	11.5
Cc1cccc(CC(C)N)c1 (configuration not stated) [Amphetamine-3-methyl]	5.17
O=C1CC2(CCCC2)CC(=O)N1CCCCN1CCN(c2ncccn2)CC1 [Buspirone]	5.78
O=C1NCCN1Cc1ccc(Cl)nc1 [Imidacloprid-urea]	4.71
O=C(Nc1ccc([N+](=O)[O-])cc1Cl)c1cc(Cl)ccc1O [Niclosamide]	12.6
CC1=C(C(=O)O)N2C(=O)C(NC(=O)C(N)c3ccc(O)cc3)C2SC1 (configuration not stated) [Cefadroxil]	2.84
CCCN(CCC)CCc1c[nH]c2ccccc12 [DPT]	5.26
CN1CCCCC1CCN1c2ccccc2Sc2ccc(S(C)=O)cc21 (configuration not stated) [Mesoridazine]	6.74
CCCSP(=O)(OCC)Oc1ccc(Br)cc1Cl (configuration not stated) [Profenophos]	12
NC(=O)C1(N2CCCCC2)CCN(CCCC(=O)c2ccc(F)cc2)CC1 [Pipamperone]	6.11
CC(=O)C1(O)CCC2C3CC(C)C4=CC(=O)C=CC4(C)C3(F)C(O)CC21C (configuration not stated) [Fluorometholone]	8.91
CCOP(=S)(OCC)Oc1ccc(Cl)cc1Cl [Dichlofenthion]	12.6
CC1(C)CC(N)CC(C)(CN)C1 (configuration not stated) [Isophorone diamine]	1.67
CNC(=O)Oc1cc(C)c(C)c(C)c1 [Trimethacarb (3.4.5-)]	8.1
CC(C)Oc1cc(-n2nc(C(C)(C)C)oc2=O)c(Cl)cc1Cl [Oxadiazon]	12.3
CC(N)Cc1ccc2occc2c1 (configuration not stated) [5-(2-aminopropyl)benzofuran (5-APB)]	4.79
CON(C)C(=O)Nc1ccc(Br)c(Cl)c1 [Chlorbromuron]	9.55
CCCN(CCOc1c(Cl)cc(Cl)cc1Cl)C(=O)n1ccnc1 [Prochloraz]	11.2
CN(CC(O)CO)C(=O)c1c(I)c(NC(=O)C(CO)CO)c(I)c(C(=O)N(C)CC(O)CO)c1I (configuration not stated) [Iobitridol]	2.74
Clc1ccc(CSC(Cn2cncn2)=Nc2ccc(Cl)cc2Cl)cc1 [Imibenconazole]	12.4
Cc1ncc2n1-c1ccc(Cl)cc1C(c1ccccc1F)=NC2 [Midazolam]	8.63

Compound	LC retention time [min]
CN1CCC23c4c5ccc(O)c4OC2CCCC3C1C5 (configuration not stated) [Desomorphine]	3.84
CCOP(=O)(SC(C)CC)N1CCSC1=O (configuration not stated) [Fosthiazate]	7.73
CCC1OC(=O)C(C)C(=O)C(C)C(OC2OC(C)CC(N(C)C)C2O)C(C)(OC)CC(C)C(=O)C(C)C2N(CCCCn3cnc(-c4cccnc4)c3)C(=O)OC12C (configuration not stated) [Telithromycin]	7.25
O=C1Nc2ccc(Cl)cc2C(c2ccccc2Cl)=NC1O (configuration not stated) [Lorazepam]	8.36
O=P1(N(CCCl)CCCl)NCCCO1 (configuration not stated) [Cyclophosphamide]	6.24
COP(=S)(OC)Oc1cc(Cl)c(I)cc1Cl [Iodofenphos (Jodfenphos)]	12.7
CCSCCSP(=S)(OC)OC [Thiometon]	10.2
NS(=O)(=O)c1ccc(N2CCCCS2(=O)=O)cc1 [Sulthiame]	4.11
CNC(=O)Oc1cccc(N=CN(C)C)c1 [Formetanate]	3.14
COc1cc(O)c(C(=O)c2ccccc2)cc1S(=O)(=O)O [Benzophenone-4]	6.19
CN1CCN=C(c2ccccc2)c2cc(Cl)ccc21 [Medazepam]	10.2
CCCCCn1cc(C(=O)NC(C(N)=O)C(C)(C)C)c2ccccc21 (configuration not stated) [ADBICA]	11.1
O=C(NC12CC3CC(CC(C3)C1)C2)c1nn(Cc2ccc(F)cc2)c2ccccc12 [FUB-AKB48]	13
CCOC(=O)C(Cl)Cc1cc(-n2nc(C)n(C(F)F)c2=O)c(F)cc1Cl (configuration not stated) [Carfentrazone-ethyl]	10.7
CCC(C)CC(C)N (configuration not stated) [DMAA (Methylhexanamine)]	4.68
CC(C)(C)C(NC(=O)c1cn(CCCCCF)c2ccccc12)C(N)=O (configuration not stated) [ADBICA-5F]	9.72
NC1CCc2cc3c(cc2C1)OCO3 (configuration not stated) [MDAT]	4.32
Cc1cccc(C)c1NC(=O)c1cc(S(N)(=O)=O)c(Cl)cc1O [Xipamide]	7.36
CON(C)C(=O)Nc1ccc(Br)cc1 [Metobromuron]	8.15
CCNc1nc(Cl)nc(NC(C)CC)n1 (configuration not stated) [Sebuthylazine]	9.09
